This passage reports melting point results from a melting point compilation (Tetko et al.; mined from patent text by program, amines drawn as free bases though some values may be those of a salt).

As usually defined, the melting point is the temperature, or range, at which the solid turns liquid.

In turn, `Cc1c(F)c(OC(F)F)cc2c1c(C#N)c(-c1ccc(S(=O)(=O)N[C@@H](C)C(F)(F)F)cn1)n2C1CCC1` registered a melting point of 182 to 186 °C. In the case of `CCOC(=O)c1cn(CC)c2cc(-c3csc(CN(CC)C(C)=O)n3)c(F)cc2c1=O` it was 160 to 161 °C; in that of `CC(=O)SC(CC(=O)c1ccc(Sc2ccc(C)cc2)cc1)C(=O)O` (configuration not stated), 127 to 129 °C; in that of `CC(C)(C)[C@H](NC(=O)[C@@H](CC(=O)OCc1ccccc1)n1ccc(-c2ccc(-c3ccc(C#N)cc3)cc2)c1)C(=O)Nc1ccncc1`, 115 to 116 °C. With `COc1cc(OCc2ccc3ccccc3c2)cc(C(=O)c2nccs2)c1`, the melting point was in the range of 105 to 106 °C. In the case of `CCCn1c(COCC)nc2c(N)nc3ccc(OCC4CCCO4)cc3c21` (configuration not stated) it was 178 to 179 °C; in that of `Cc1ccc2c(-c3cc(C(C)(C)C)c(O)c(C(C)(C)C)c3)nn(CCO)c2n1`, 183 to 185 °C. In the case of `Cc1cccc(-c2nc(C)cc(-c3ccccc3Cl)n2)n1` it was 90.8 °C; in that of `CCOc1cc(C=[N+]([O-])C(C)(C)CC(C)(C)C)ccc1OC`, 77.5 °C. In the case of `CC(CN1CCN(c2ccc(F)cc2)CC1)CN1c2cccc3cccc(c23)S1(=O)=O` (configuration not stated) it was 133 °C.

In turn, `CCOC(=O)COc1ccc(C(=O)[C@@H](NC(=O)c2ccc(C(=N)NC(=O)OC(C)(C)C)cc2)[C@@H](C)OC(C)(C)C)cc1` yielded a melting point of 95 to 97 °C. With `CCOC(=O)c1cc(=O)c2cccc(Br)c2o1`, the melting point was 124 to 126 °C. In the case of `CC(C)(C)OC(=O)Nc1cc(OCc2ccccc2)c2ncccc2c1` it was 180 to 181 °C. In the case of `COc1cc(C(C)C)ccc1C1(NC(=O)C2CC2)C(=O)c2ccccc2C1=O` it was 145 to 147 °C; in that of `Fc1ccc(-c2cc(Cl)nc3ccccc23)cc1`, 118 °C. With `O=C1C2CC3=C(CN2C(=O)N1c1ccccc1)N(Cc1ccccc1)CN3` (configuration not stated), the melting point fell in the range of 227 to 229 °C. For the compound `CCc1sc2nc(C(=O)O)cn2c1C`, the melting point was 243 to 245 °C. Turning to `CC(C)C[C@H](NC(=O)CCS)C(=O)O`, the melting point fell in the range of 131 to 132 °C. In the case of `CC(C)(C)OC(=O)C(CC(O)(C(F)(F)F)C(F)(F)F)NC(=O)OCc1ccccc1` (configuration not stated) it was 83 to 89 °C. In the case of `CCCSc1sc(C(=O)N2CCCC2)c2c1C(=O)CC(C)(C)C2` it was 117 to 119 °C.

With `CCc1sc2c(c1C)c(=O)c1cccc(C(=O)O)c1n2Cc1ccc(-c2ccccc2C#N)cc1`, the melting point lay within 203 to 205 °C. `Oc1ccc(Cl)c2c1CCCC2` yielded a melting point of 58 to 59 °C.

`NC(=O)c1ccc(-c2ccc3nnn(Cc4cc5cccnc5cc4F)c3n2)cc1Cl` yielded a melting point of 202 to 204 °C. The compound `COc1ccc(-n2c(-c3ccc(OCCCl)cc3)nc3c(OC)cccc3c2=O)cc1` displayed a melting point of 151 to 152 °C. In the case of `O=C(O)Cc1c[nH]c2cc(C(F)(F)F)nn2c1=O` it was 320 to 324 °C; in that of `CC(=O)c1ccc2c(c1)C(C(=O)Nc1cccc(C(=O)Nc3ccccc3)c1)C(=O)N2C` (configuration not stated), 178 to 179 °C. In the case of `COc1ccc(C(=O)Nc2ccc(F)cc2)c2c1oc1ccccc12` it was 246 °C. In the case of `CC1(C)Oc2ccc(C(N)=S)cc2C(Oc2ccnc(O)c2)C1(C)O` (configuration not stated) it was 142 to 144 °C. On to `c1nnc2c3c(c(NCCN4CCCC4)nn12)CCCC3`, for which the melting point lay in the range of 160 to 162 °C. `CC(=NO)C(C)Oc1ccccc1` (configuration not stated) had a melting point of 65 to 67 °C. In the case of `Cn1nc(-c2c(F)cccc2Cl)nc1-c1cc(-c2ccc(OC(F)(F)F)cc2)sc1Br` it was 135 to 136 °C. In the case of `Fc1ccc(C(c2ccc(F)cc2)N2CCN(CC=C3CCc4ccccc43)CC2)cc1` it was 138 to 142 °C; in that of `COc1ccccc1OCC1SCCN1C(=O)CS` (configuration not stated), 86 to 87 °C; in that of `CC(C)NC(=O)N1CCc2[nH]cnc2C1C1CCCCC1` (configuration not stated), 254 °C. In the case of `CC(=O)Oc1c(C=C(C#N)C#N)[nH]c2ccccc12`, the melting point lay in the range of 210 to 212 °C. In the case of `COc1cc2ccc(-c3ccccc3N)cc2cc1OC` it was 215 to 217 °C; in that of `CCOCc1nc2c(N)nc3cc(OCCc4c[nH]c5ccccc45)ccc3c2n1CC(C)(C)O`, 220 to 222 °C; in that of `CC(C)Cn1c(CNC(=O)OC(C)(C)C)c(-c2ccc(F)cc2)c2cc(/C=C/C(=O)O)ccc2c1=O`, 201 to 202 °C. For the compound `CCOC(=O)CCc1cc(-c2ccc(Cl)cc2)n(-c2ccc(OC)cc2)n1`, the melting point is 80 to 81 °C. In the case of `O=C(OCC1CCCCC1)c1ncn2c1[C@@H]1CCCN1C(=O)c1c(Cl)cccc1-2` it was 123 to 124 °C. In the case of `COc1cc(/C=C/C(=O)/C=C/C(=O)O)cc(OC)c1OC` it was 152 to 154 °C; in that of `Cc1nnc(COc2ccc([N+](=O)[O-])cc2)o1`, 105 to 106 °C. In the case of `CCCCCC(=O)N(Cc1ccccc1)c1nc(C)ns1` it was 72 °C; in that of `CCCc1nc2cccc(C(=O)OC)c2n1Cc1ccc(-c2ccccc2-c2nc(=O)o[nH]2)cc1`, 224 to 226 °C; in that of `CCOC(=O)c1ccc(C)c(NC(=O)C2=C(C)OCCS2)c1`, 105 to 107 °C.

Turning to `CN1CCN(CC/C=C/c2ccc3c(Nc4ccc(Sc5nccn5C)c(Cl)c4)c(C#N)cnc3c2)CC1`, the melting point lay in the range of 225 to 235 °C. The compound `Nc1c(-c2cc(Cl)ccc2O)c2cc(C(F)(F)F)ccc2[nH]c1=O` registered a melting point of 233 to 235 °C. In the case of `CCCCc1c(C=O)ccc2cc(OC)ccc12` it was 56 to 57 °C. As for `N#Cc1ccc(Oc2cccc(Oc3ccc(C#N)c(C#N)c3)c2)cc1C#N`, the melting point is 183 to 186 °C.

As to `COc1ccc(C(=O)c2[nH]c3ccc(Cl)cc3c2CC(=O)O)cc1`, the melting point lay in the range of 232 to 235 °C. In the case of `Cc1cccc(C)c1OC1CN(C(c2ccccc2)c2ccccc2)C1` it was 99 to 100 °C; in that of `Cc1cc(-c2csc(NC(=N)N)n2)c[nH]1`, 235 to 237 °C; in that of `COC(=O)Cn1c(=O)[nH][nH]c1=O`, 215 to 218 °C. As to `CCC(CC)c1cccc(C[C@H]2C(=O)O[C@H](c3ccccc3)[C@H](c3ccccc3)N2C(=O)OC(C)(C)C)c1`, the melting point was 143 to 144 °C. With `Clc1cccc(-c2nc3ccccn3c2-c2ccnc(-c3ccc(OCCN4CCCC4)cc3)c2)c1`, the melting point is 298 °C.

In turn, `NNc1nnc(C=Cc2ccc([N+](=O)[O-])o2)s1` returned a melting point of 205 to 206 °C. In the case of `COc1cccc(S(=O)(=O)NC(C)(C)C)c1` it was 100 °C. In the case of `Cc1onc(C(=O)c2ccc(Cl)cc2)c1[N+](=O)[O-]` it was 173 to 175 °C. As to `COC(=O)CN(C=O)C1c2ccccc2CC1(C)C` (configuration not stated), the melting point fell in the range of 172 to 173 °C. In the case of `NC(=O)c1cc(Cl)c(N[C@H]2CC[C@H](N)CC2)cc1F` it was 160 to 162 °C; in that of `CN1CCC(N(C)c2ncc3ncnc(Nc4cccc([N+](=O)[O-])c4)c3n2)CC1`, 199 to 203 °C.

The compound `CC(Oc1ccc(COc2ccc(Cl)cc2)cc1)C(=O)OCCOc1cc(Cl)c(Cl)cc1Cl` (configuration not stated) came in with a melting point of 83 °C.
